The values below come from patent US20110086759A1, “CHEMICAL COMPOUNDS” (SYNGENTA CROP PROTECTION, INC., priority 2007, published 2011).

Holding throughout (type): in vivo
Experiment [1] relates to Alopecurus myosuroides (ALOMY). Put plainly: Pre-emergence biological efficacy, glasshouse pot test. The following applies: 312 h. The procedure, abridged: (§1)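 Seeds sown in standard soil in pots, held one day in glasshouse (24/16 °C day/night, 14 h light, 65% humidity), then sprayed with aqueous solution from acetone/water (50:50) formulation with 0.5% Tween 20 at 1000 or 250 g/ha. Damage scored after 13 days (0 = none, 100 = total).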

The subject of experiment [2] is Setaria faberi (SETFA). The description is as above. The following applies: 312 h. In a few lines: as §1
Experiment [3] has as its system Amaranthus retoflexus (AMARE). The experiment is described as above. As to conditions: Amaranthus retroflexus, 312 h. In a few lines:
as §1

In experiment [4] the test system is Solanum nigrum (SOLNI). The experiment is described as above. The following applies: 312 h. The procedure, abridged:
as §1

Experiment [5] relates to Ipomea hederaceae (IPOHE). Described as above. As to conditions: Ipomoea hederacea, 312 h. The procedure, abridged:
as §1

Experiment [6] deals with Echinochloa crus-galli (ECHCG). The experiment is described as above. As to conditions: 312 h. The procedure, abridged:
as §1

Experiment [7] deals with Alopecurus myosuroides (ALOMY). Put plainly: Post-emergence biological efficacy, glasshouse pot test. As to conditions: 312 h. The procedure, abridged: (§2)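 Plants were sown in standard soil and grown 8 days in a glasshouse (24/16° C. day/night, 14 hours light, 65% humidity), then sprayed post-emergence at 1000 or 250 g/ha from acetone/water (50:50) with 0.5% Tween 20. Damage was scored visually after 13 days (0 = none, 100 = total).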

In experiment [8] the test system is Setaria faberi (SETFA). The experiment is described as above. As to conditions: 312 h. In a few lines: as §2
Experiment [9] has as its system Amaranthus retoflexus (AMARE). Described as above. The following applies: Amaranthus retroflexus, 312 h. The procedure, abridged:
as §2

For experiment [10], the system named is Solanum nigrum (SOLNI). Described as above. As to conditions: 312 h. The procedure, abridged:
as §2

Experiment [11] concerns Ipomea hederaceae (IPOHE). Described as above. The following applies: Ipomoea hederacea, 312 h. The procedure, abridged:
as §2

The test system of experiment [12] is Echinochloa crus-galli (ECHCG). Described as above. The following applies: 312 h. The procedure, abridged: as §2
Setting [13] is: pre-emergence, rate 1,000 g/ha, evaluated after 13 days (100=total damage to plant; 0=no damage), read-out: Percentage damage caused to weed species, ALOMY.
[14] abbreviates: pre-emergence, rate 1,000 g/ha, evaluated after 13 days (100=total damage to plant; 0=no damage), read-out: Percentage damage caused to weed species, SETFA.
The mark [15] stands for this setting: pre-emergence, rate 1,000 g/ha, evaluated after 13 days (100=total damage to plant; 0=no damage), read-out: Percentage damage caused to weed species, AMARE.
[16] abbreviates: pre-emergence, rate 1,000 g/ha, evaluated after 13 days (100=total damage to plant; 0=no damage), read-out: Percentage damage caused to weed species, SOLNI.
The mark [17] stands for this setting: pre-emergence, rate 1,000 g/ha, evaluated after 13 days (100=total damage to plant; 0=no damage), read-out: Percentage damage caused to weed species, IPOHE.
[18] abbreviates: pre-emergence, rate 1,000 g/ha, evaluated after 13 days (100=total damage to plant; 0=no damage), read-out: Percentage damage caused to weed species, ECHCG.
The mark [19] stands for this setting: Rate 1,000 g/ha, post-emergence spray, evaluated after 13 days (100=total damage to plant; 0=no damage to plant), read-out: Percentage damage caused to weed species, post-emergence, ALOMY.
The mark [20] stands for this setting: Rate 1,000 g/ha, post-emergence spray, evaluated after 13 days (100=total damage to plant; 0=no damage to plant), read-out: Percentage damage caused to weed species, post-emergence, SETFA.
Setting [21] is: Rate 1,000 g/ha, post-emergence spray, evaluated after 13 days (100=total damage to plant; 0=no damage to plant), read-out: Percentage damage caused to weed species, post-emergence, AMARE.
[22] abbreviates: Rate 1,000 g/ha, post-emergence spray, evaluated after 13 days (100=total damage to plant; 0=no damage to plant), read-out: Percentage damage caused to weed species, post-emergence, SOLNI.
Where [23] appears, read: Rate 1,000 g/ha, post-emergence spray, evaluated after 13 days (100=total damage to plant; 0=no damage to plant), read-out: Percentage damage caused to weed species, post-emergence, IPOHE.
[24] abbreviates: Rate 1,000 g/ha, post-emergence spray, evaluated after 13 days (100=total damage to plant; 0=no damage to plant), read-out: Percentage damage caused to weed species, post-emergence, ECHCG.
Where [25] appears, read: pre-emergence, 1,000 g/ha, evaluated after 13 days (100=total damage; 0=no damage), read-out: Percentage damage ALOMY.
Setting [26] is: pre-emergence, 1,000 g/ha, evaluated after 13 days (100=total damage; 0=no damage), read-out: Percentage damage SETFA.
Where [27] appears, read: pre-emergence, 1,000 g/ha, evaluated after 13 days (100=total damage; 0=no damage), read-out: Percentage damage AMARE.
Where [28] appears, read: pre-emergence, 1,000 g/ha, evaluated after 13 days (100=total damage; 0=no damage), read-out: Percentage damage SOLNI.
Where [29] appears, read: pre-emergence, 1,000 g/ha, evaluated after 13 days (100=total damage; 0=no damage), read-out: Percentage damage IPOHE.
[30] abbreviates: pre-emergence, 1,000 g/ha, evaluated after 13 days (100=total damage; 0=no damage), read-out: Percentage damage ECHCG.
[31] abbreviates: post-emergence, 1,000 g/ha, evaluated after 13 days (100=total damage; 0=no damage), read-out: Percentage damage caused to weed species, ALOMY.
Where [32] appears, read: post-emergence, 1,000 g/ha, evaluated after 13 days (100=total damage; 0=no damage), read-out: Percentage damage caused to weed species, SETFA.
Where [33] appears, read: post-emergence, 1,000 g/ha, evaluated after 13 days (100=total damage; 0=no damage), read-out: Percentage damage caused to weed species, AMARE.
Setting [34] is: post-emergence, 1,000 g/ha, evaluated after 13 days (100=total damage; 0=no damage), read-out: Percentage damage caused to weed species, SOLNI.
The mark [35] stands for this setting: post-emergence, 1,000 g/ha, evaluated after 13 days (100=total damage; 0=no damage), read-out: Percentage damage caused to weed species, IPOHE.
Where [36] appears, read: post-emergence, 1,000 g/ha, evaluated after 13 days (100=total damage; 0=no damage), read-out: Percentage damage caused to weed species, ECHCG.

Each structure is given as a SMILES string.

Turning to `CCCN(Cc1ccccc1F)c1nc(C2CC2)nc(C(=O)OC)c1Cl` [Compound 145-64, 5-Chloro-2-cyclopropyl-4-[N-(2-fluorophenylmethyl)-N-prop-1-yl-amino]-6-methoxy-carbonylpyrimidine], the pest or weed control at 1000 g/ha in [1] (setting [13]) was found to be 0%; in the experiment on Setaria faberi (SETFA) [2] (setting [14]), 0%; in experiment [3] (setting [15]), 70%; in the experiment on Solanum nigrum (SOLNI) [4] (setting [16]), 70%; in [5] (setting [17]), 70%; in experiment [6] (setting [18]), 0%. Also, the pest or weed control at 1000 g/ha in [7] (setting [19]) was 0%; in the experiment on Setaria faberi (SETFA) [8] (setting [20]), 40%; in experiment [9] (setting [21]), 90%; in the experiment on Solanum nigrum (SOLNI) [10] (setting [22]), 80%; in [11] (setting [23]), 70%; in experiment [12] (setting [24]), 30%.
With `COC(=O)c1nc(C2CC2)nc(NCc2ccc(OC)c(OC)c2)c1Cl` [Compound 4-112, 5-Chloro-2-cyclopropyl-4-(3,4-dimethoxyphenyl-methylamino)-6-methoxycarbonyl-pyrimidine], the pest or weed control at 1000 g/ha in [1] (setting [25]) is 50%; in the experiment with Setaria faberi (SETFA) [2] (setting [26]), 80%; in experiment [3] (setting [27]) it was 70%; in the experiment with Solanum nigrum (SOLNI) [4] (setting [28]) it was 90%; in [5] (setting [29]), 90%; in experiment [6] (setting [30]), 40%. Further, the pest or weed control at 1000 g/ha in experiment [7] (setting [31]) came to 40%; with Setaria faberi (SETFA) [8] (setting [32]) it was 90%; in experiment [9] (setting [33]) it was 100%; in the experiment on Solanum nigrum (SOLNI) [10] (setting [34]), 100%; in experiment [11] (setting [35]), 100%; in experiment [12] (setting [36]) it was 90%.
Turning to `COC(=O)c1nc(-c2ccc(Cl)c(Cl)c2F)nc(NCc2ccco2)c1Cl` [Compound 226-48, 5-Chloro-2-(3,4-dichloro-2-fluorophenyl)-4-(furan-2-ylmethyl-amino)-6-methoxy-carbonylpyrimidine], the pest or weed control at 1000 g/ha in experiment [1] (setting [13]) was determined as 50%; in the experiment on Setaria faberi (SETFA) [2] (setting [14]) it was 40%; in experiment [3] (setting [15]), 100%; with Solanum nigrum (SOLNI) [4] (setting [16]), 100%; in [5] (setting [17]), 30%; in [6] (setting [18]), 30%. The pest or weed control at 1000 g/ha was 50% in [7] (setting [19]); 80% in the experiment on Setaria faberi (SETFA) [8] (setting [20]); 100% in [9] (setting [21]); 90% with Solanum nigrum (SOLNI) [10] (setting [22]); 60% in experiment [11] (setting [23]); 60% in experiment [12] (setting [24]).
As for `COC(=O)c1nc(C2CC2)nc(NCc2ccccn2)c1Cl` [Compound 4-151, 5-Chloro-2-cyclopropyl-6-methoxycarbonyl-4-(pyrid-2-yl-methylamino)-pyrimidine], the pest or weed control at 1000 g/ha was determined as 40% in [1] (setting [25]); 50% with Setaria faberi (SETFA) [2] (setting [26]); 100% in [3] (setting [27]); 90% in the experiment on Solanum nigrum (SOLNI) [4] (setting [28]); 90% in [5] (setting [29]); 60% in [6] (setting [30]). Besides, the pest or weed control at 1000 g/ha in experiment [7] (setting [31]) was 60%; with Setaria faberi (SETFA) [8] (setting [32]) it was 80%; in [9] (setting [33]), 100%; in the experiment with Solanum nigrum (SOLNI) [10] (setting [34]), 80%; in [11] (setting [35]), 80%; in experiment [12] (setting [36]) it was 80%.
On to `COC(=O)c1nc(C2CC2)nc(N(C)CC2OCCO2)c1Cl` [Compound 5-54, 5-Chloro-2-cyclopropyl-4-[N-(1,3-dioxolan-2-yl)methyl-N-methyl-amino]-6-methoxycarbonyl-pyrimidine], for which the pest or weed control at 1000 g/ha in [1] (setting [13]) amounted to 0%; with Setaria faberi (SETFA) [2] (setting [14]), 0%; in [3] (setting [15]), 50%; with Solanum nigrum (SOLNI) [4] (setting [16]) it was 0%; in [5] (setting [17]), 30%; in experiment [6] (setting [18]), 0%. The pest or weed control at 1000 g/ha in [7] (setting [19]) amounted to 0%; in the experiment with Setaria faberi (SETFA) [8] (setting [20]), 30%; in experiment [9] (setting [21]) it was 80%; in the experiment with Solanum nigrum (SOLNI) [10] (setting [22]) it was 30%; in experiment [11] (setting [23]), 60%; in experiment [12] (setting [24]), 0%.
As to `COC(=O)c1nc(C2CC2)nc(N[C@H](c2ccccc2)[C@@H](O)c2ccccc2)c1Cl` [4-280 (1R,2S), 5-Chloro-2-cyclopropyl-4-[(1R, 2S)-1,2-diphenyl-2-hydroxy-ethyl-amino]-6-methoxy-carbonylpyrimidine], the pest or weed control at 1000 g/ha in [1] (setting [25]) turned out to be 10%; in the experiment with Setaria faberi (SETFA) [2] (setting [26]) it was 10%; in experiment [3] (setting [27]), 60%; with Solanum nigrum (SOLNI) [4] (setting [28]), 80%; in experiment [5] (setting [29]), 90%; in [6] (setting [30]) it was 20%. For the same compound, the pest or weed control at 1000 g/ha was 40% in experiment [7] (setting [31]); 70% in the experiment with Setaria faberi (SETFA) [8] (setting [32]); 100% in [9] (setting [33]); 80% in the experiment with Solanum nigrum (SOLNI) [10] (setting [34]); 70% in experiment [11] (setting [35]); 50% in [12] (setting [36]).
In the case of `COC(=O)c1nc(C2CC2)nc(NC2(/C=C/c3cccs3)CC2)c1Cl` [Compound 4-23, 5-Chloro-2-cyclopropyl-6-methoxycarbonyl-4-[1-(2-thiophen-2-ylethenyl)-cyclopropylamino]-pyrimidine], the pest or weed control at 1000 g/ha in [1] (setting [25]) turned out to be 10%; in the experiment with Setaria faberi (SETFA) [2] (setting [26]), 0%; in experiment [3] (setting [27]), 70%; with Solanum nigrum (SOLNI) [4] (setting [28]), 60%; in experiment [5] (setting [29]) it was 70%; in experiment [6] (setting [30]), 0%. For the same compound, the pest or weed control at 1000 g/ha in experiment [7] (setting [31]) was 20%; with Setaria faberi (SETFA) [8] (setting [32]) it was 70%; in experiment [9] (setting [33]) it was 100%; with Solanum nigrum (SOLNI) [10] (setting [34]), 80%; in experiment [11] (setting [35]) it was 100%; in experiment [12] (setting [36]), 60%.
